Literature values as cited in patent US20020006908A1, “ANTICONVULSANT DERIVATIVES USEFUL IN TREATING SCHIZOPHRENIA” (priority 1998, published 2002).

Tests used:
[1] = tested on: brain GABA activity
[2] = tested on: human epilepsy; conditions: adjunctive therapy or monotherapy, clinical trials of human epilepsy
[3] = tested on: glutamate receptor
[4] = tested on: rodent models of epilepsy; conditions: several rodent models of epilepsy
[5] = tested on: animal model of kindled epilepsy

## CC1(C)O[C@@H]2[C@@H](CO[C@@]3(COS(N)(=O)=O)OC(C)(C)O[C@@H]23)O1 [topiramate, 2,3:4,5-bis-O-(1-methylethylidene)-β-D-fructopyranose sulfamate]
[1]
  effect on brain GABA activity: enhancement of brain GABA activity
[2]
  efficacy in treating simple and complex partial seizures and secondarily generalized seizures: effective
[3]
  effect on glutamate receptor activity: reduced glutamate receptor activity
[4]
  seizure block: effectively block seizures
[5]
  seizure block: effectively block seizures
